Converted amounts (≈) assume the structure as drawn.

In US6204262A, “1,3-Benzodiazepin-2-ones and 1,3-Benzoxazepin-2-ones useful as HIV reverse transcriptase inhibitors” (DuPont Pharmaceuticals Company, priority 1999, dated 2001) one finds IC90 data, which are given here for one compound.

For the assay, the system named is HIV-1 (RF). Put plainly: Microplate based compound evaluation in HIV-1 infected MT-2 cells (HIV RNA assay). Format: cell-based. Conditions: Human immunodeficiency virus 1, MT2, 72 h; HIV-1 (RF) infected MT-2 cells, 3 days at 37° C.; virus inoculum standardized on ddC; read-out: IC90 value (concentration of compound required to reduce the HIV RNA level by 90%). On the procedure:
Plasmid pDAB 72 containing both gag and pol sequences of BH10 (bp 113-1816) cloned into PTZ 19R was prepared according to Erickson-Viitanen et al. AIDS Research and Human Retroviruses 1989, 5, 577. The plasmid was linearized with Bam HI prior to the generation of in vitro RNA transcripts using the Riboprobe Gemini system II kit (Promega) with T7 RNA polymerase. Synthesized RNA was purified by treatment with RNase free DNAse (Promega), phenol-chloroform extraction, and ethanol precipitation. RNA transcripts were dissolved in water, and stored at -70° C. The concentration of RNA was determined from the A260.
Biotinylated capture probes were purified by HPLC after synthesis on an Applied Biosystems (Foster City, Calif.) DNA synthesizer by addition of biotin to the 5' terminal end of the oligonucleotide, using the biotin-phosphoramidite reagent of Cocuzza, Tet. Lett. 1989, 30, 6287. […]
MT-2 and MT-4 cells were maintained in RPMI 1640 supplemented with 5% fetal calf serum (FCS) for MT-2 cells or 10% FCS for MT-4 cells, 2 mM L-glutamine and 50 μg/mL gentamycin, all from Gibco. […] Infectious titers of HIV-1(RF) stocks were 1-3×10^7 PFU (plaque forming units)/mL as measured by plaque assay on MT-2 cells (see below). […]

With `Nc1ccn([C@H]2CC[C@@H](CO)O2)c(=O)n1` [ddC, 2',3'-dideoxycytidine], the IC90 was determined as 0.2 µg/mL (≈ 0.947 µM).
